Test results taken from PubChem BioAssay AID330 (DTP/NCI, 2004).
Several values for one entry are separate records, joined by “and”; a condition that tells them apart may be missing. Equal values may be shown once. Inconclusive results and toxic doses are left out.

Tested on: P388 leukemia ip, CD2F1 mice, survival T/C
Test: NCI In Vivo Anticancer Drug Screen. Data for tumor model P388 Leukemia (intraperitoneal) in CD2F1 (CDF1) mice
Conditions: endpoint: median survival time, higher = longer survival
How it was run: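 Mice carrying the transplanted tumor received test compound or vehicle. Survival was recorded in each group, and the value is the treated-group measurement divided by that of the vehicle-treated control group.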

[1] = dose: 60.0 mg/kg/injection, schedule: Q01DX005 (ip), vehicle: saline with Tween-80
[2] = dose: 120.0 mg/kg/injection, schedule: Q01DX005 (ip), vehicle: saline with Tween-80
[3] = dose: 240.0 mg/kg/injection, schedule: Q01DX005 (ip), vehicle: saline with Tween-80
[4] = dose: 50.0 mg/kg/injection, schedule: Q01DX009 (ip), vehicle: saline
[5] = dose: 100.0 mg/kg/injection, schedule: Q01DX009 (ip), vehicle: saline
[6] = dose: 50.0 mg/kg/injection, schedule: Q01DX009 (ip), vehicle: Klucel (hydroxypropylcellulose) (HPC)
[7] = dose: 100.0 mg/kg/injection, schedule: Q01DX009 (ip), vehicle: Klucel (hydroxypropylcellulose) (HPC)
[8] = dose: 200.0 mg/kg/injection, schedule: Q01DX009 (ip), vehicle: Klucel (hydroxypropylcellulose) (HPC)
[9] = dose: 100.0 mg/kg/injection, schedule: Q04DX003 (ip), vehicle: saline
[10] = dose: 200.0 mg/kg/injection, schedule: Q04DX003 (ip), vehicle: saline
[11] = dose: 400.0 mg/kg/injection, schedule: Q04DX003 (ip), vehicle: saline

O=C(CNC1=NCCN1)Nc1ccc(NC(=O)c2ccc(C(=O)Nc3ccc(NC(=O)CNC4=NCCN4)cc3)cc2)cc1
T/C (dose: 50.0 mg/kg/injection, schedule: Q01DX005 (ip), vehicle: saline with Tween-80): 118 % of control and 124 % of control
T/C (dose: 200.0 mg/kg/injection, schedule: Q01DX005 (ip), vehicle: saline with Tween-80): 189 % of control
T/C (dose: 400.0 mg/kg/injection, schedule: Q01DX005 (ip), vehicle: saline with Tween-80): 96 % of control

CC12OC1C(=O)C1C3C=CC(C3)C1C2=O (configuration not stated)
T/C (dose: 75.0 mg/kg/injection, schedule: Q04DX002 (ip), vehicle: saline with Tween-80): 96 % of control
T/C (dose: 150.0 mg/kg/injection, schedule: Q04DX002 (ip), vehicle: saline with Tween-80): 96 % of control
T/C (dose: 300.0 mg/kg/injection, schedule: Q04DX002 (ip), vehicle: saline with Tween-80): 97 % of control

COC(=O)C1CC(C(=O)OC)C2C(C(=O)OC)CC(C(=O)OC)C12 (configuration not stated)
T/C [1]: 99 % of control
T/C [2]: 96 % of control
T/C [3]: 99 % of control

CC(C)(C)c1ccc2c(O)c(C(C)(C)C)cc(-c3ccccc3)c2c1
T/C [4]: 107 % of control
T/C [5]: 110 % of control
T/C (dose: 200.0 mg/kg/injection, schedule: Q01DX009 (ip), vehicle: saline): 106 % of control

Clc1cc2[nH]cnc2c(Cl)n1
T/C (dose: 6.25 mg/kg/injection, schedule: Q04DX002 (ip), vehicle: saline): 102 % of control
T/C (dose: 12.5 mg/kg/injection, schedule: Q04DX002 (ip), vehicle: saline): 102 % of control
T/C (dose: 25.0 mg/kg/injection, schedule: Q04DX002 (ip), vehicle: saline): 103 % of control

O=C(OCc1ccccc1)SS(=O)(=O)O
T/C [6]: 95 % of control
T/C [7]: 110 % of control
T/C [8]: 119 % of control

COc1cccc(Cc2ccncc2)c1OC
T/C (dose: 12.5 mg/kg/injection, schedule: Q01DX009 (ip), vehicle: water): 101 % of control
T/C (dose: 25.0 mg/kg/injection, schedule: Q01DX009 (ip), vehicle: water): 100 % of control
T/C (dose: 50.0 mg/kg/injection, schedule: Q01DX009 (ip), vehicle: water): 100 % of control
T/C (dose: 100.0 mg/kg/injection, schedule: Q01DX009 (ip), vehicle: water): 102 % of control
T/C (dose: 200.0 mg/kg/injection, schedule: Q01DX009 (ip), vehicle: water): 103 % of control

COc1cc2c(cc1OC)C(Cc1ccccc1NC(=O)c1ccc(C(=O)Nc3ccccc3CC3c4cc(OC)c(OC)cc4CCN3C)cc1)N(C)CC2 (configuration not stated)
T/C [1]: 89 % of control
T/C [2]: 88 % of control
T/C [3]: 94 % of control

Oc1ccc(Cc2ccc(O)cc2)cc1
T/C (dose: 100.0 mg/kg/injection, schedule: Q04DX003 (ip), vehicle: saline with Tween-80): 102 % of control
T/C (dose: 200.0 mg/kg/injection, schedule: Q04DX003 (ip), vehicle: saline with Tween-80): 101 % of control
T/C (dose: 400.0 mg/kg/injection, schedule: Q04DX003 (ip), vehicle: saline with Tween-80): 115 % of control

O=S(=O)(Nc1ccccn1)c1ccc(NCc2c3ccccc3nc3cc(Cl)ccc23)cc1
T/C [1]: 97 % of control
T/C [2]: 98 % of control
T/C [3]: 96 % of control

CC(C)CC1C(=O)OC(C(C)C)C(=O)N(C)C(CC(C)C)C(=O)OC(C(C)C)C(=O)N(C)C(CC(C)C)C(=O)OC(C(C)C)C(=O)N(C)C(CC(C)C)C(=O)OC(C(C)C)C(=O)N1C (configuration not stated)
T/C (dose: 1.0 mg/kg/injection, schedule: Q01DX009 (ip), vehicle: saline with Tween-80): 99 % of control
T/C (dose: 2.0 mg/kg/injection, schedule: Q01DX009 (ip), vehicle: saline with Tween-80): 90 % of control
T/C (dose: 4.0 mg/kg/injection, schedule: Q01DX009 (ip), vehicle: saline with Tween-80): 101 % of control
T/C (dose: 8.0 mg/kg/injection, schedule: Q01DX009 (ip), vehicle: saline with Tween-80): 101 % of control
T/C (dose: 16.0 mg/kg/injection, schedule: Q01DX009 (ip), vehicle: saline with Tween-80): 96 % of control

COc1ccc(C2SCC(=O)N2c2nnc(C(F)(F)F)s2)c(OC)c1OC (configuration not stated)
T/C (dose: 100.0 mg/kg/injection, schedule: Q04DX002 (ip), vehicle: saline with Tween-80): 100 % of control
T/C (dose: 200.0 mg/kg/injection, schedule: Q04DX002 (ip), vehicle: saline with Tween-80): 90 % of control
T/C (dose: 400.0 mg/kg/injection, schedule: Q04DX002 (ip), vehicle: saline with Tween-80): 93 % of control

COC(=O)c1c(SC)c2sc3ccccc3c2oc1=O
T/C (dose: 6.25 mg/kg/injection, schedule: Q04DX002 (ip), vehicle: saline with Tween-80): 100 % of control
T/C (dose: 12.5 mg/kg/injection, schedule: Q04DX002 (ip), vehicle: saline with Tween-80): 106 % of control
T/C (dose: 25.0 mg/kg/injection, schedule: Q04DX002 (ip), vehicle: saline with Tween-80): 99 % of control

O=C(O)Cc1sc(=O)[nH]c1O
T/C [9]: 100 % of control
T/C [10]: 100 % of control
T/C [11]: 95 % of control

COc1c2c(cc3c1OCO3)CCN(C)C2
T/C (dose: 10.0 mg/kg/injection, schedule: Q01DX009 (ip), vehicle: saline): 106 % of control
T/C (dose: 20.0 mg/kg/injection, schedule: Q01DX009 (ip), vehicle: saline): 101 % of control
T/C (dose: 40.0 mg/kg/injection, schedule: Q01DX009 (ip), vehicle: saline): 98 % of control
T/C (dose: 80.0 mg/kg/injection, schedule: Q01DX009 (ip), vehicle: saline): 104 % of control

O=C(N/N=C\c1ccc(O)cc1O)C(=O)N/N=C\c1ccc(O)cc1O
T/C [6]: 98 % of control
T/C [7]: 105 % of control
T/C [8]: 100 % of control

Cc1ccc(Nc2nnc(-c3ccc4c(c3)OCO4)o2)c(C)c1
T/C (dose: 50.0 mg/kg/injection, schedule: Q01DX005 (ip), vehicle: Klucel (hydroxypropylcellulose) (HPC)): 97 % of control
T/C (dose: 100.0 mg/kg/injection, schedule: Q01DX005 (ip), vehicle: Klucel (hydroxypropylcellulose) (HPC)): 97 % of control
T/C (dose: 200.0 mg/kg/injection, schedule: Q01DX005 (ip), vehicle: Klucel (hydroxypropylcellulose) (HPC)): 100 % of control

N=C1N=Nc2nc(C(C(=O)c3cccc([N+](=O)[O-])c3Cl)c3nc4n(c3O)C(=N)N=N4)c(O)n21 (configuration not stated)
T/C [1]: 106 % of control
T/C [2]: 105 % of control
T/C [3]: 106 % of control

COC1OC(CO)C(O)C2OCCOCCOC3C(OC)OC(CO)C(O)C3OCCOCCOC12 (configuration not stated)
T/C (dose: 60.0 mg/kg/injection, schedule: Q01DX005 (ip), vehicle: saline): 103 % of control
T/C (dose: 120.0 mg/kg/injection, schedule: Q01DX005 (ip), vehicle: saline): 101 % of control
T/C (dose: 240.0 mg/kg/injection, schedule: Q01DX005 (ip), vehicle: saline): 97 % of control

CC1(COCCOCC2(C)CO2)CO1 (configuration not stated)
T/C [5]: 118 % of control
T/C [9]: 100 % of control
T/C [10]: 113 % of control
T/C (dose: 400.0 mg/kg/injection, schedule: Q01DX009 (ip), vehicle: saline sonified): 177 % of control
T/C (dose: 400.0 mg/kg/injection, schedule: Q01DX009 (ip), vehicle: saline): 172 % of control
T/C [11]: 109 % of control
T/C (dose: 600.0 mg/kg/injection, schedule: Q01DX009 (ip), vehicle: saline sonified): 200 % of control

O=C(O)c1ccccc1N/N=C\c1cc(/C=N/Nc2ccccc2C(=O)O)nc2[nH]c(=O)ccc12
T/C (dose: 100.0 mg/kg/injection, schedule: Q04DX002 (ip), vehicle: Klucel (hydroxypropylcellulose) (HPC)): 102 % of control
T/C (dose: 200.0 mg/kg/injection, schedule: Q04DX002 (ip), vehicle: Klucel (hydroxypropylcellulose) (HPC)): 107 % of control
T/C (dose: 400.0 mg/kg/injection, schedule: Q04DX002 (ip), vehicle: Klucel (hydroxypropylcellulose) (HPC)): 105 % of control

CCN(CC)CCSc1nnc(-c2ccc3c(c2)OCO3)o1
T/C (dose: 50.0 mg/kg/injection, schedule: Q04DX003 (ip), vehicle: water): 99 % of control
T/C (dose: 100.0 mg/kg/injection, schedule: Q04DX003 (ip), vehicle: water): 99 % of control
T/C (dose: 200.0 mg/kg/injection, schedule: Q04DX003 (ip), vehicle: water): 101 % of control

Cc1nn(C(=O)c2ccncc2)c(C)c1N=Nc1ccc(S(=O)(=O)Nc2nccs2)cc1
T/C [9]: 96 % of control
T/C [10]: 97 % of control
T/C [11]: 110 % of control

COc1cccc2c1C(=O)c1c(O)c3c(c(O)c1C2=O)C[C@@](O)(C(C)=O)C[C@@H]3OC1CC(NC=O)C(O)C(C)O1 (some centres not stated)
T/C (dose: 1.56 mg/kg/injection, schedule: Q01DX009 (ip), vehicle: saline): 117 % of control
T/C (dose: 3.13 mg/kg/injection, schedule: Q01DX009 (ip), vehicle: saline): 119 % of control
T/C [4]: 153 % of control
T/C [5]: 155 % of control
